Assay results reported in patent US20240317777A1, “NOVEL MACROCYCLIC AMINOPYRAZOLE COMPOUNDS AS CDK2 INHIBITORS” (Accutar Biotechnology Inc., priority 2023, published 2024).
pIC50: −log10 of the molar value. Like-named read-outs stand apart in the source and are kept apart here. One block for each molecule: values may come before it.

What was measured:
[1] = other bond, THF
[2] = target: CDK1-CYCLIN B (Homo sapiens, UniProt P06493); assay: CDK protein kinase inhibition by ADP-Glo assay, CDK1-CYCLIN B; type: biochemical; conditions: ADP-Glo, 1000 μM ATP, read-out: CDK1-CYCLINB, IC50
Chain of CDK1-CYCLIN B (P06493 whole entry): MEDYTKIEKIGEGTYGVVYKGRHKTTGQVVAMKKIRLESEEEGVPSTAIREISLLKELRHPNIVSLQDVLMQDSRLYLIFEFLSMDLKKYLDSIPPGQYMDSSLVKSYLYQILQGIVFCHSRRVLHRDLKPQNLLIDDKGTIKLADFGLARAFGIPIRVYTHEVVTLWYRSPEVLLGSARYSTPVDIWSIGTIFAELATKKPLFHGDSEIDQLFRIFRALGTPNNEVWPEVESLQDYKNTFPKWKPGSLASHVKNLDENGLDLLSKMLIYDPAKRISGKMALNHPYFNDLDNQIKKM
Chain of CDK1-CYCLIN B (P14635 whole entry partner): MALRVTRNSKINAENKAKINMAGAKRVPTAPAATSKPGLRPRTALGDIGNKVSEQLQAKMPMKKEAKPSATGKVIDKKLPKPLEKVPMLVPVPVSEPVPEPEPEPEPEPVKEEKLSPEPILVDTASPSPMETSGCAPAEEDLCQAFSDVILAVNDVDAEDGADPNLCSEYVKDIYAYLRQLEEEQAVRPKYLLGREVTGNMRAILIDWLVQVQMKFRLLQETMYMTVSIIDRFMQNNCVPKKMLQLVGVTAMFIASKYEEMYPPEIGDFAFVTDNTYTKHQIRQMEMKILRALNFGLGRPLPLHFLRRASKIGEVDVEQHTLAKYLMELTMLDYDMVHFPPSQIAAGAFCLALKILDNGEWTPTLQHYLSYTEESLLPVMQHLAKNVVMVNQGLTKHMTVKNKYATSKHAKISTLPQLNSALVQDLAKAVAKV
Summary of the method: (§1)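 In this assay, substrate phosphorylation by each CDK/cyclin pair is measured indirectly as ADP, read by ADP-Glo luminescence. The reaction uses 1000 μM ATP at 22° C in pH 7.5 buffer with 1% DMSO.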

[3] = target: CDK2-CYCLIN E1 (Homo sapiens, UniProt P24941); assay: CDK protein kinase inhibition by ADP-Glo assay, CDK2-CYCLIN E1; type: biochemical; conditions: ADP-Glo, 1000 μM ATP, read-out: CDK2-CYCLINE, IC50
Summary of the method: as §1

[4] = target: CDK4-CYCLIN D1 (Homo sapiens, UniProt P11802); assay: CDK protein kinase inhibition by ADP-Glo assay, CDK4-CYCLIN D1; type: biochemical; conditions: ADP-Glo, 1000 μM ATP, read-out: CDK4-CYCLIND1, IC50
Chain of CDK4-CYCLIN D1 (P11802 whole entry): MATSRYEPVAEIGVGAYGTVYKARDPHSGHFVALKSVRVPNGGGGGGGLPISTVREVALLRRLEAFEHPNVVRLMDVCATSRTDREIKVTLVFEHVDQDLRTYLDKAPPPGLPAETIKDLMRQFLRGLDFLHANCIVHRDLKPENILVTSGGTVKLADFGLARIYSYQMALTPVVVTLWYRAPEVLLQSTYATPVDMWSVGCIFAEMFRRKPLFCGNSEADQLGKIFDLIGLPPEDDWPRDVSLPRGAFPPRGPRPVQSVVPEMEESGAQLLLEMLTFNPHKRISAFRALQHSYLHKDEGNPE
Chain of CDK4-CYCLIN D1 (P24385 whole entry partner): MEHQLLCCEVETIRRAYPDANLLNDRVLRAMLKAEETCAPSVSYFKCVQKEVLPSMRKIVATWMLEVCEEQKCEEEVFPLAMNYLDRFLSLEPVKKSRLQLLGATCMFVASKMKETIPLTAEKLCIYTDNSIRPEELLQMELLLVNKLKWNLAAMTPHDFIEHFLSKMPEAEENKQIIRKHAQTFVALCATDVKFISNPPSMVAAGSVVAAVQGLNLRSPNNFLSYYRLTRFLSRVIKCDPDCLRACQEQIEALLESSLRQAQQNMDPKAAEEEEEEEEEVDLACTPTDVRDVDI
Summary of the method: as §1

[5] = target: CDK6-CYCLIN D3 (Homo sapiens, UniProt Q00534); assay: CDK protein kinase inhibition by ADP-Glo assay, CDK6-CYCLIN D3; type: biochemical; conditions: ADP-Glo, 1000 μM ATP, read-out: CDK6-CYCLIND3, IC50
Chain of CDK6-CYCLIN D3 (Q00534 whole entry): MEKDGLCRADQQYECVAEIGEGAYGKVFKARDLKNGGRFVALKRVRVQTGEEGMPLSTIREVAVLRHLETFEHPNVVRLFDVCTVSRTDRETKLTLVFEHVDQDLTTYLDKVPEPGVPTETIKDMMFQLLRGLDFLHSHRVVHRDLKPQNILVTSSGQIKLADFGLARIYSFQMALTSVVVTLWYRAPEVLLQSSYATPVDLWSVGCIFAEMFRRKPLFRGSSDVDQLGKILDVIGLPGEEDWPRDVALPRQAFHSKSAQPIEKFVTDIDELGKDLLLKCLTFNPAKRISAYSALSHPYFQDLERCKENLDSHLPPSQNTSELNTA
Chain of CDK6-CYCLIN D3 (P30281 whole entry partner): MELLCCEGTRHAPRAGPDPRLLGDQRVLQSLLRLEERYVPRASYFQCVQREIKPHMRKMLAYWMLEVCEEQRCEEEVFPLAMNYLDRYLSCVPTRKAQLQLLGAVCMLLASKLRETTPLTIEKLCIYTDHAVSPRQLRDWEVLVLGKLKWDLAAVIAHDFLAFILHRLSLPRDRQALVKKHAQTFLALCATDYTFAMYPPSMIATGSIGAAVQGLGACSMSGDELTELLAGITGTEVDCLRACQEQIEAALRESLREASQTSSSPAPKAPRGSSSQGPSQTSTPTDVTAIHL
Summary of the method: as §1

[6] = target: CDK9-CYCLIN T1 (Homo sapiens, UniProt P50750); assay: CDK protein kinase inhibition by ADP-Glo assay, CDK9-CYCLIN T1; type: biochemical; conditions: ADP-Glo, 1000 μM ATP, read-out: CDK9-CYCLINT1, IC50
Chain of CDK9-CYCLIN T1 (P50750 whole entry): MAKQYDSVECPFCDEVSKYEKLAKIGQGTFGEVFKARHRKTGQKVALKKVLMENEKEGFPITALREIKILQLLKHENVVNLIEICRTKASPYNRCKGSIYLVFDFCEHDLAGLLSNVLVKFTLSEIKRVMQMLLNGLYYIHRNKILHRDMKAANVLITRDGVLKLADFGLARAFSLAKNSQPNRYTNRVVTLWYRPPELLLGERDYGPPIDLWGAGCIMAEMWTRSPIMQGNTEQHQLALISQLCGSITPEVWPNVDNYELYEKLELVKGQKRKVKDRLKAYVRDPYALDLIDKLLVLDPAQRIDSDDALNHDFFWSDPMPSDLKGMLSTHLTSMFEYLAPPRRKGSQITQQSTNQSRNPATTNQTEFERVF
Chain of CDK9-CYCLIN T1 (O60563 whole entry partner): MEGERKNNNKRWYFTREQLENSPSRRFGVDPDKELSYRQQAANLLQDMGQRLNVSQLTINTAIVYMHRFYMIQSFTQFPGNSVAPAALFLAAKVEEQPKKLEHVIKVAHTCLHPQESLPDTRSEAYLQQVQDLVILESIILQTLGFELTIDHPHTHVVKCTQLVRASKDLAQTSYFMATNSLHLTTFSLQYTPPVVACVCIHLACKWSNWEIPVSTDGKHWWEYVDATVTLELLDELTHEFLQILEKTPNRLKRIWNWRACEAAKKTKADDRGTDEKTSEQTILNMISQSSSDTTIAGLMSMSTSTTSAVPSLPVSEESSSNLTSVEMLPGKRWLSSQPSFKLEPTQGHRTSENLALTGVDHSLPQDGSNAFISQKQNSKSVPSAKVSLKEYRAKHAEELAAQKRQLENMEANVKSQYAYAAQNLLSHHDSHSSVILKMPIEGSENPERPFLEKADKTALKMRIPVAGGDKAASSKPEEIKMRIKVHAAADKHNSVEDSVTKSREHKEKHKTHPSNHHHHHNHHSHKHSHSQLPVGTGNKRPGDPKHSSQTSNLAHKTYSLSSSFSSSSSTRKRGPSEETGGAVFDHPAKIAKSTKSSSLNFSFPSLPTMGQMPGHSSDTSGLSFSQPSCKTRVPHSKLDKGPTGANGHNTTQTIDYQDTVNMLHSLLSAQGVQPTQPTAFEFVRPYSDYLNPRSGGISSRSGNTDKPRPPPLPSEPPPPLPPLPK
Summary of the method: as §1

[7] = system: Phospho-Rb (Ser807/811) in OVCAR3 cells; assay: Phospho-Rb expression inhibition in OVCAR3 cells quantified by In Cell Western; type: cell-based; conditions: Homo sapiens, OVCAR-3, 24 hours, read-out: OVCAR-3 pRb IC50
Summary of the method: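 In-cell western: after 24 h compound exposure at 37° C, fixed OVCAR3 cells co-stained for pRb Ser807/811 (800 nm channel) and total Rb (680 nm channel), imaged by LI-COR Odyssey.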

[8] = system: CCNE1-amplified OVCAR3 cells; assay: Cell growth inhibition of CCNE1-amplified OVCAR3 cells (CellTiter-Glo); type: cell-based; conditions: Homo sapiens, OVCAR-3, 144 h, 6 days
Summary of the method: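 Growth read-out was CellTiter-Glo luminescence, taken after 10 min at room temperature at the end of a 6-day compound exposure at 37 °C. Compounds were diluted from DMSO stocks across various concentrations.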

[9] = system: CCNE1-normal SKOV3 cells; assay: Cell growth inhibition of CCNE1-normal SKOV3 cells (CellTiter-Glo); type: cell-based; conditions: Homo sapiens, SK-OV-3, 144 h, 6 days
Summary of the method: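 Growth was measured by CellTiter-Glo luminescence after 6 days' compound exposure at 37 °C. Cells were plated one day before dosing at 1000 per well in medium with 10% FBS, and compounds were diluted from DMSO stocks.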

SMILES: CC(C)(C)n1nc2cc1Nc1cc(nc(C(F)F)c1)CCCCCNC(=O)O[C@@H]1CC[C@H]2C1
- ring closure, yield of all isomers ([1]; from CC(C)(C)n1nc([C@H]2CC[C@@H](OC(=O)Oc3ccc([N+](=O)[O-])cc3)C2)cc1Nc1cc(CCCCCN)nc(C(F)F)c1, DIPEA, 3.27 mM, 30.0 °C, 12.0 h): 44.1%

SMILES: CC(C)(C)n1nc2cc1Nc1cc(nc(C(F)F)c1)OCCCCNC(=O)O[C@@H]1CC[C@H]2C1
- ring closure, yield of all isomers ([1]; from CC(C)(C)n1nc([C@H]2CC[C@@H](OC(=O)Oc3ccc([N+](=O)[O-])cc3)C2)cc1Nc1cc(OCCCCN)nc(C(F)F)c1, DIEA, 1.11 mM, 25.0 °C, 12.0 h): 65%

SMILES: CC(C)(C)n1nc2cc1Nc1ccnc(c1)C(F)(F)C[C@H]1C[C@@H](C1)NC(=O)O[C@@H]1CC[C@H]2C1
- ring closure, yield of all isomers ([1]; from CC(C)(C)n1nc([C@H]2CC[C@@H](OC(=O)Oc3ccc([N+](=O)[O-])cc3)C2)cc1Nc1ccnc(C(F)(F)C[C@H]2C[C@H](N)C2)c1, DIEA, 3.33 mM, 25.0 °C, 12.0 h): 99.9%

SMILES: CC(C)(C)n1nc2cc1Nc1ccnc(c1)CCCCCNC(=O)O[C@@H]1CC[C@H]2C1
- ring closure, yield of all isomers ([1]; from CC(C)(C)n1nc([C@H]2CC[C@@H](OC(=O)Oc3ccc([N+](=O)[O-])cc3)C2)cc1Nc1ccnc(CCCCCN)c1, DIPEA, 2.0 mM, 30.0 °C, 3.0 h): 85%

SMILES: CC(C)(C)n1nc2cc1Nc1ccnc(c1)OC[C@H]1C[C@@H](C1)NC(=O)O[C@@H]1CC[C@H]2C1
- ring closure, yield of all isomers ([1]; from CC(C)(C)n1nc([C@H]2CC[C@@H](OC(=O)Oc3ccc([N+](=O)[O-])cc3)C2)cc1Nc1ccnc(OC[C@H]2C[C@H](N)C2)c1, DIEA, 1.21 mM, 70.0 °C, 12.0 h): 96.7%

SMILES: CC(C)(C)n1nc2cc1Nc1cncc(c1)OCCCCNC(=O)O[C@@H]1CC[C@H]2C1
- ring closure, yield of all isomers ([1]; from CC(C)(C)n1nc([C@H]2CC[C@@H](OC(=O)Oc3ccc([N+](=O)[O-])cc3)C2)cc1Nc1cncc(OCCCCN)c1, DIPEA, 2.01 mM, 25.0 °C, 12.0 h, 2 steps): 49.3%

- pIC50 ([2]; Table 9): < 6.30
- pIC50 ([3]; Table 9): 7.30 to 8.00
- pIC50 ([4]; Table 9): 6.30 to 7.00
- pIC50 ([5]; Table 9): 6.30 to 7.00
- pIC50 ([6]; Table 9): 6.30 to 7.00
- pIC50 [7]: 8.00 to 8.70
- pIC50 [8]: 8.00 to 8.70
SMILES: O=C1NC23CC(CCc4cc(ccn4)Nc4cc([nH]n4)[C@H]4CC[C@H](C4)O1)(C2)C3 [compound 21]
- pIC50 [9]: 5.90 to 6.60

- pIC50 ([2]; Table 15): 7.00 to 7.30
- pIC50 ([3]; Table 15): ≥ 8.00
- pIC50 ([4]; Table 15): 6.30 to 7.00
- pIC50 ([5]; Table 15): 6.30 to 7.00
- pIC50 ([6]; Table 15): 6.30 to 7.00
- pIC50 [7]: 8.00 to 8.70
- pIC50 [8]: 7.30 to 8.00
SMILES: C[C@H]1OCCCNC(=O)O[C@@H]2CC[C@@H](C2)c2cc([nH]n2)Nc2ccnc1c2 [compound 71]
- pIC50 [9]: 6.60 to 7.30

- pIC50 ([2]; Table 7): 7.30 to 8.00
- pIC50 ([3]; Table 7): ≥ 8.00
- pIC50 ([4]; Table 7): 7.00 to 7.30
- pIC50 ([5]; Table 7): 7.30 to 8.00
- pIC50 ([6]; Table 7): 6.30 to 7.00
- pIC50 [7]: 8.00 to 8.70
- pIC50 [8]: 7.30 to 8.00
SMILES: O=C1NCCCCOc2cncc(c2)Nc2cc(n[nH]2)[C@H]2CC[C@H](C2)O1 [compound 104]
- pIC50 [9]: < 5.90
